In patent US8183248B2, “Substituted pyrrolo[2,3-d]pyrimidines and compositions as protein kinase inhibitors” (IRM LLC, priority 2005, dated 2012):

How the values were obtained:
Assay in all cases: Upstate KinaseProfiler radio-enzymatic filter binding assay
Type in all cases: biochemical
PKCα(h) = molecular target: T1, PKCα(h) (Homo sapiens, UniProt P17252); conditions: read-out: percentage inhibition PKCα(h)
T1 construct: purchased Upstate
Procedure: (§1) Compounds of the invention are assessed for their ability to inhibit individual members of the kinase panel. The compounds are tested in duplicates at a final concentration of 10 μM following this generic protocol. Note that the kinase buffer composition and the substrates vary for the different kinases included in the “Upstate KinaseProfiler™” panel. Kinase buffer (2.5 μL, 10×—containing MnCl2 when required), active kinase (0.001-0.01 Units; 2.5 μL), specific or Poly(Glu4-Tyr) peptide (5-500 μM or 0.01 mg/ml) in kinase buffer and kinase buffer (50 μM; 5 μL) are mixed in an eppendorf on ice. A Mg/ATP mix (10 μL; 67.5 (or 33.75) mM MgCl2, 450 (or 225) μM ATP and 1 μCi/μl [γ-^32P]-ATP (3000 Ci/mmol)) is added and the reaction is incubated at about 30° C. for about 10 minutes. The reaction mixture is spotted (20 μL) onto a 2 cm×2 cm P81 (phosphocellulose, for positively charged peptide substrates) or Whatman No. 1 (for Poly (Glu4-Tyr) peptide substrate) paper square. The assay squares are washed 4 times, for 5 minutes each, with 0.75% phosphoric acid and washed once with acetone for 5 minutes. The assay squares are transferred to a scintillation vial, 5 ml scintillation cocktail are added and ^32P incorporation (cpm) to the peptide substrate is quantified with a Beckman scintillation counter. Percentage inhibition is calculated for each reaction.

p70S6K(h) = molecular target: T2, p70S6K(h) (Homo sapiens, UniProt P23443); conditions: read-out: percentage inhibition p70S6K(h)
T2 construct: purchased Upstate
Procedure: as §1

SAPK4(h) = molecular target: T3, SAPK4(h) (Homo sapiens, UniProt O15264); conditions: read-out: percentage inhibition SAPK4(h)
T3 construct: purchased Upstate
Procedure: as §1

c-RAF(h) = molecular target: T4, c-RAF(h) (Homo sapiens, UniProt P04049); conditions: read-out: percentage inhibition c-RAF(h)
T4 construct: purchased Upstate
Procedure: as §1

JNK2α2(h) = molecular target: T5, JNK2α2(h) (Homo sapiens, UniProt P45984); conditions: read-out: percentage inhibition JNK2α2(h)
T5 construct: purchased Upstate
T5 sequence (P45984 whole entry): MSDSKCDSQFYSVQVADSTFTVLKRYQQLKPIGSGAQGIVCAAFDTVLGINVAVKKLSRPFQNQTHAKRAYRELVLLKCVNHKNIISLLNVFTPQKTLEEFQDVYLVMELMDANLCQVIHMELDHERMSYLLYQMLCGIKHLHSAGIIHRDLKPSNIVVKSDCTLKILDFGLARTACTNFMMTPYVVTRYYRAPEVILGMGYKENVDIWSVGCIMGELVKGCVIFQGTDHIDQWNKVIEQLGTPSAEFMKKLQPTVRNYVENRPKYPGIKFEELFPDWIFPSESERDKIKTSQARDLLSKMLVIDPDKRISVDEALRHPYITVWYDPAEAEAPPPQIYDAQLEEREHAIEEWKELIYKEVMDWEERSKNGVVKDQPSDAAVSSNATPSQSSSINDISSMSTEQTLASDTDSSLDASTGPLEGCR
Procedure: as §1

Abl(T315L) = molecular target: T6, Abl(T315L) (Homo sapiens, UniProt P00519, T315I); conditions: read-out: percentage inhibition Abl(T315L)
T6 construct: purchased Upstate
Procedure: as §1

Ros(h) = molecular target: T7, Ros(h) (Homo sapiens, UniProt P08922); conditions: read-out: percentage inhibition Ros(h)
T7 construct: purchased Upstate
T7 sequence (P08922 28-2347): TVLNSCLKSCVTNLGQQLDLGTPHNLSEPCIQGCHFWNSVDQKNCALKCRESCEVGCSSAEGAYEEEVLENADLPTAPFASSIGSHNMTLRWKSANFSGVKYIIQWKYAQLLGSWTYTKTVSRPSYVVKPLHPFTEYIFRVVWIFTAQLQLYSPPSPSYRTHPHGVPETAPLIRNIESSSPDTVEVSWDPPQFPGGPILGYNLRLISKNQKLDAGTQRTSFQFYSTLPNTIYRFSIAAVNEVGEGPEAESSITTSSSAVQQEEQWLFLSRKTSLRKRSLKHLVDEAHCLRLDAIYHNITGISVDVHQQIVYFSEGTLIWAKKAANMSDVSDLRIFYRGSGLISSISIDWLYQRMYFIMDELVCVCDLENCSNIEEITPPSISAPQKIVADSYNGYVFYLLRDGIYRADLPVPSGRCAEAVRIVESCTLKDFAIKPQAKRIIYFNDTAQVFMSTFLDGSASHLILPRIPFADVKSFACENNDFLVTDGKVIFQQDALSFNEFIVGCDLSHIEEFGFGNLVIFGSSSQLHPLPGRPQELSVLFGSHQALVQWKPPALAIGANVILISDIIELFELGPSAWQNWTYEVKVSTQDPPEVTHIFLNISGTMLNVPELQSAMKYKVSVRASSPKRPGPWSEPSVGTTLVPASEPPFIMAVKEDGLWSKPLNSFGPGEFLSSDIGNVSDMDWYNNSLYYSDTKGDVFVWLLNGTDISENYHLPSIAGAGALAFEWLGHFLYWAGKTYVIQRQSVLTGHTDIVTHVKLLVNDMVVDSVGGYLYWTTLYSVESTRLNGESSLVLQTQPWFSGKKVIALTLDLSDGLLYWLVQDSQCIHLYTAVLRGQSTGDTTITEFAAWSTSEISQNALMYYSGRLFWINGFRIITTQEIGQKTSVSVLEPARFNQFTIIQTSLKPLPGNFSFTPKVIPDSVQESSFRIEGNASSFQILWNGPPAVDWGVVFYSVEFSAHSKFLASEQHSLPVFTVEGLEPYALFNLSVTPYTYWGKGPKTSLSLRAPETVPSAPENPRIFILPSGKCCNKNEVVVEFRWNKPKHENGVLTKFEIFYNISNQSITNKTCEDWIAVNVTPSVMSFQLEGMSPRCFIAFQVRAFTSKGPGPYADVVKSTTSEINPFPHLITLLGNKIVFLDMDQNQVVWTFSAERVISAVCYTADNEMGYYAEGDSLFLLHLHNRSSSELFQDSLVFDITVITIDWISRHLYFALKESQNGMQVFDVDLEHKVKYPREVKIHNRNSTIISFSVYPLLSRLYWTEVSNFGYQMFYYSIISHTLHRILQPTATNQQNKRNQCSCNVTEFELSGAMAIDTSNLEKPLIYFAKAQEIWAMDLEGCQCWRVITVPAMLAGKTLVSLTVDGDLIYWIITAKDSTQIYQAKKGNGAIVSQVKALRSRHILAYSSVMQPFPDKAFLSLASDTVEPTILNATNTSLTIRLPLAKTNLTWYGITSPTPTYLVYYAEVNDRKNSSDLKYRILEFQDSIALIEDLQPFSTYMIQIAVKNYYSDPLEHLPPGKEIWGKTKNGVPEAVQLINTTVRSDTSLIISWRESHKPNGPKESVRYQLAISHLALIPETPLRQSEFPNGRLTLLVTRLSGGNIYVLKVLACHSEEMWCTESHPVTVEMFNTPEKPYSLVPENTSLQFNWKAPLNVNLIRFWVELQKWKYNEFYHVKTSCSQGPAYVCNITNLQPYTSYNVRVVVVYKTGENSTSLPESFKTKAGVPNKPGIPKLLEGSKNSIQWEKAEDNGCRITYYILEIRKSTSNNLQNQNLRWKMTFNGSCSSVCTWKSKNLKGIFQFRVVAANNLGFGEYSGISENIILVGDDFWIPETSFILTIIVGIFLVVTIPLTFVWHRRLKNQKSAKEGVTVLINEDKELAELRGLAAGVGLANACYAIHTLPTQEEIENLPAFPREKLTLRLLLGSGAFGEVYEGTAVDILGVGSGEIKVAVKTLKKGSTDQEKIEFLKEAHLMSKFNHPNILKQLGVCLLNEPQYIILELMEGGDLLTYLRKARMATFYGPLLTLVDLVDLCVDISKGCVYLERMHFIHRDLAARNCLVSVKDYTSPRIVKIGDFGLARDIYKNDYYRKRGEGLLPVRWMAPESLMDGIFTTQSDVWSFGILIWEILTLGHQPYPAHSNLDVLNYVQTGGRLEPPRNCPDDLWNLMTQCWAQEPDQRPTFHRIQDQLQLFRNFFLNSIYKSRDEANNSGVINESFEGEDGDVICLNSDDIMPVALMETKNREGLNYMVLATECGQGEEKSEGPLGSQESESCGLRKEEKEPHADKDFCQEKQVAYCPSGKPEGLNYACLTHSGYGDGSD
Procedure: as §1

FGFR3(h) = molecular target: T8, FGFR3(h) (Homo sapiens, UniProt P22607); conditions: read-out: percentage inhibition FGFR3(h)
T8 construct: purchased Upstate
Procedure: as §1

Flt3(h) = molecular target: T9, Flt3(h) (Homo sapiens, UniProt P36888); conditions: read-out: percentage inhibition Flt3(h)
T9 construct: purchased Upstate
Procedure: as §1

Rsk1(h) = molecular target: T10, Rsk1(h) (Homo sapiens, UniProt Q15418); conditions: read-out: percentage inhibition Rsk1(h)
T10 construct: purchased Upstate
Procedure: as §1

IKKα(h) = molecular target: T11, IKKα(h) (Homo sapiens, UniProt O15111); conditions: read-out: percentage inhibition IKKα(h)
T11 construct: purchased Upstate
T11 sequence (O15111 whole entry): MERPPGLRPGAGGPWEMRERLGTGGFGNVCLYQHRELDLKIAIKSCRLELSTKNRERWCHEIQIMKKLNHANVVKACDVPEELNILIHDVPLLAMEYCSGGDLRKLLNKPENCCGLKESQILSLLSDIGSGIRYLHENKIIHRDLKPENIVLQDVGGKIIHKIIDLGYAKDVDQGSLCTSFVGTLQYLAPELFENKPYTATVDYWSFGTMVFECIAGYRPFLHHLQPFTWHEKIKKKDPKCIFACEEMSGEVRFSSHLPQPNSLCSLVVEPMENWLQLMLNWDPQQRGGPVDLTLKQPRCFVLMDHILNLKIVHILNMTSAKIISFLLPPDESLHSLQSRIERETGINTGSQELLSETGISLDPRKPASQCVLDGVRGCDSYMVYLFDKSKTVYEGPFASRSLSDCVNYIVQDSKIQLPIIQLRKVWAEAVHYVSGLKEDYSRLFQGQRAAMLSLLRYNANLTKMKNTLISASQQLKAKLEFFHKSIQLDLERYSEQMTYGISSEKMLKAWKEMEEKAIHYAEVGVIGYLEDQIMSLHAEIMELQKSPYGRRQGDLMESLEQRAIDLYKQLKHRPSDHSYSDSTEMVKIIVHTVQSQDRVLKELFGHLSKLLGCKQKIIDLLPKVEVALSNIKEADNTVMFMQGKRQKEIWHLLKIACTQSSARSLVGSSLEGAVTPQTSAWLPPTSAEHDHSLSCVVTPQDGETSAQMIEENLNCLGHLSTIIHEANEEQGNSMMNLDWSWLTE
Procedure: as §1

MKK6(h) = molecular target: T12, MKK6(h) (Homo sapiens, UniProt P52564); conditions: read-out: percentage inhibition MKK6(h)
T12 construct: purchased Upstate
Procedure: as §1

IKKβ(h) = molecular target: T13, IKKβ(h) (Homo sapiens, UniProt O14920); conditions: read-out: percentage inhibition IKKβ(h)
T13 construct: purchased Upstate
Procedure: as §1

SAPK2a(h) = molecular target: T14, SAPK2a(h) (Homo sapiens, UniProt Q16539); conditions: read-out: percentage inhibition SAPK2a(h)
T14 construct: purchased Upstate
T14 sequence (Q16539 whole entry): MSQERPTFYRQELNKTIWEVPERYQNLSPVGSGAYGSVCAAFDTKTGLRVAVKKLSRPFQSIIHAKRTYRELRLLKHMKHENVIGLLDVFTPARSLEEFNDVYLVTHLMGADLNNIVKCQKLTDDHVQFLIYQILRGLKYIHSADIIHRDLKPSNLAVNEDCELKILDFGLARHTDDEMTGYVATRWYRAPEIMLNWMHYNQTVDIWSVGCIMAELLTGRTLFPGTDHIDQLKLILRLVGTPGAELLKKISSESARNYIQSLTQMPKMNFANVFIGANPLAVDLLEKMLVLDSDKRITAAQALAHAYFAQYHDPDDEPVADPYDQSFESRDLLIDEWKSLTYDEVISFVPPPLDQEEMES
Procedure: as §1

Syk(h) = molecular target: T15, Syk(h) (Homo sapiens, UniProt P43405); conditions: read-out: percentage inhibition Syk(h)
T15 construct: purchased Upstate
Procedure: as §1

cSRC(h) = molecular target: T16, cSRC(h) (Homo sapiens, UniProt P12931); conditions: read-out: percentage inhibition cSRC(h)
T16 construct: purchased Upstate
Procedure: as §1

ROCK-II(h) = molecular target: T17, ROCK-II(h) (Homo sapiens, UniProt O75116); conditions: read-out: percentage inhibition ROCK-II(h)
T17 construct: purchased Upstate
Procedure: as §1

PKD2(h) = molecular target: T18, PKD2(h) (Homo sapiens, UniProt Q9BZL6); conditions: read-out: percentage inhibition PKD2(h)
T18 construct: purchased Upstate
Procedure: as §1

SGK(h) = molecular target: T19, SGK(h) (Homo sapiens, UniProt O00141); conditions: read-out: percentage inhibition SGK(h)
T19 construct: purchased Upstate
T19 sequence (O00141 whole entry): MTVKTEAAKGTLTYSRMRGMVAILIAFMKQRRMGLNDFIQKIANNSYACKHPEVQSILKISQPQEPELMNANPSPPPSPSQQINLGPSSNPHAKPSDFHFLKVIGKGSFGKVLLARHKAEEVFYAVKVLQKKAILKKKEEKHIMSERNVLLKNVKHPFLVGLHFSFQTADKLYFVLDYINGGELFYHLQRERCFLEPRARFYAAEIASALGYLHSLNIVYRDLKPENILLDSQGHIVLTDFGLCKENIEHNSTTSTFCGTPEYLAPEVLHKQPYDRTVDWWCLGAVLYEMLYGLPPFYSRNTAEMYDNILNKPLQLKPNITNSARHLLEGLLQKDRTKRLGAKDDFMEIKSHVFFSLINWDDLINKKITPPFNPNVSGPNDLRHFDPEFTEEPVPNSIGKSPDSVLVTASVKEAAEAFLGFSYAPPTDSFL
Procedure: as §1

JNK1α1(h) = molecular target: T20, JNK1α1(h) (Homo sapiens, UniProt P45983); conditions: read-out: percentage inhibition JNK1α1(h)
T20 construct: purchased Upstate
Procedure: as §1

Lck(h) = molecular target: T21, Lck(h) (Homo sapiens, UniProt P06239); conditions: read-out: percentage inhibition Lck(h)
T21 construct: purchased Upstate
Procedure: as §1

PDGFRα(h) = molecular target: T22, PDGFRα(h) (Homo sapiens, UniProt P16234); conditions: read-out: percentage inhibition PDGFRα(h)
T22 construct: purchased Upstate
Procedure: as §1

BTK(h) = molecular target: T23, BTK(h) (Homo sapiens, UniProt Q06187); conditions: read-out: percentage inhibition BTK(h)
T23 construct: purchased Upstate
T23 sequence (Q06187 whole entry): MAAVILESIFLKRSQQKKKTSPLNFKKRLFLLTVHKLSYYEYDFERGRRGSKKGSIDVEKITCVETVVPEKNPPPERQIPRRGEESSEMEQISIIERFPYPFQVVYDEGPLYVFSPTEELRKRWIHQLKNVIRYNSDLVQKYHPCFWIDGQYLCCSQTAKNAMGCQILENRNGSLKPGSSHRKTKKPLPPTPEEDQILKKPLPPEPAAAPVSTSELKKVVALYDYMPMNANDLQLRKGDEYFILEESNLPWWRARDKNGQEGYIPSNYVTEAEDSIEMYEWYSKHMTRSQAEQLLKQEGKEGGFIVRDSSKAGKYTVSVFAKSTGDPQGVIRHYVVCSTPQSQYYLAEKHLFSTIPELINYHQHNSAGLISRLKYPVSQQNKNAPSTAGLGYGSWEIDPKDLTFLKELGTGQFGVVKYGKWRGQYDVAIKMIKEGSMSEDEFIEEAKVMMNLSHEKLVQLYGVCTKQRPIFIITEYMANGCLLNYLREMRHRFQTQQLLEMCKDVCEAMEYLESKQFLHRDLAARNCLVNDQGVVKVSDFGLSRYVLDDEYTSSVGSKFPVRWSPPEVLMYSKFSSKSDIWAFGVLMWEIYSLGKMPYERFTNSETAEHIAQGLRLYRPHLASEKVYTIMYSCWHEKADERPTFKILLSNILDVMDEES
Procedure: as §1

Fes(h) = molecular target: T24, Fes(h) (Homo sapiens, UniProt P07332); conditions: read-out: percentage inhibition Fes(h)
T24 construct: purchased Upstate
Procedure: as §1

MKK4(m) = molecular target: T25, MKK4(m) (Mus musculus, UniProt P47809); conditions: read-out: percentage inhibition MKK4(m)
T25 construct: purchased Upstate
Procedure: as §1

Bmx(h) = molecular target: T26, Bmx(h) (Homo sapiens, UniProt P51813); conditions: read-out: percentage inhibition Bmx(h)
T26 construct: purchased Upstate
Procedure: as §1

CSK(h) = molecular target: T27, CSK(h) (Homo sapiens, UniProt P41240); conditions: read-out: percentage inhibition CSK(h)
T27 construct: purchased Upstate
Procedure: as §1

SAPK3(h) = molecular target: T28, SAPK3(h) (Homo sapiens, UniProt P53778); conditions: read-out: percentage inhibition SAPK3(h)
T28 construct: purchased Upstate
Procedure: as §1

inhibition at 10 µM (PKCα(h)): 61%
inhibition at 10 µM (p70S6K(h)): 94%
inhibition at 10 µM (SAPK4(h)): 82%
inhibition at 10 µM (c-RAF(h)): 97%
inhibition at 10 µM (JNK2α2(h)): 99%
inhibition at 10 µM (Abl(T315L)): 98%
inhibition at 10 µM (Ros(h)): 62%
inhibition at 10 µM (FGFR3(h)): 98%
inhibition at 10 µM (Flt3(h)): 96%
inhibition at 10 µM (Rsk1(h)): 95%
inhibition at 10 µM (IKKα(h)): 98%
inhibition at 10 µM (MKK6(h)): 98%
inhibition at 10 µM (IKKβ(h)): 96%
inhibition at 10 µM (SAPK2a(h)): 92%
inhibition at 10 µM (Syk(h)): 63%
inhibition at 10 µM (cSRC(h)): 99%
inhibition at 10 µM (ROCK-II(h)): 78%
inhibition at 10 µM (PKD2(h)): 94%
inhibition at 10 µM (SGK(h)): 81%
inhibition at 10 µM (JNK1α1(h)): 81%
inhibition at 10 µM (Lck(h)): 100%
inhibition at 10 µM (PDGFRα(h)): 93%
inhibition at 10 µM (BTK(h)): 99%
inhibition at 10 µM (Fes(h)): 97%
inhibition at 10 µM (MKK4(m)): 87%
inhibition at 10 µM (Bmx(h)): 100%
inhibition at 10 µM (CSK(h)): 100%
inhibition at 10 µM (SAPK3(h)): 92%
SMILES: CCN1CCN(Cc2ccc(NC(=O)c3ccc(C)c(NC(=O)N(C)c4ncnc5[nH]ccc45)c3)cc2C(F)(F)F)CC1 [Example 4, N-[4-(4-Ethyl-piperazin-1-ylmethyl)-3-trifluoromethyl-phenyl]-4-methyl-3-[3-methyl-3-(7H-pyrrolo[2,3-d]pyrimidin-4-yl)-ureido]-benzamide]
